Experiment [1] is described as follows: ORAC assay with B-phycoerythrin probe (ORACB-PE / ORACPE). The settings on record: calculated based on equation 2, n > 3. Type of experiment: biochemical. The method, then: In accordance with the published ORAC assay, a sample such as fresh fruit, blood senun, or an additive or supplement in powder form is prepared for extraction and extracted first in water and then in acetone. A protein based fluorescent probe, namely B-phycoerythrin (B-PE) is then added to the extract. A standard, having high antioxidant capacity, such as diluted grape seed extract (GSE) or TROLOX® (6-hydroxy-2,5,7,8-tetramethylchroman-2-carboxylic acid), a water soluble analog of vitamin E, is added to the extract to provide a comparison of the antioxidant capacity of the sample to the standard. The extract, the standard, and a blank sample are then loaded into the COBAS FARA II device and an initial fluorescence emission of the probe is taken. Next, AAPH, (2,2′-azobis (2-amidino-propane) dihydrochloride), which generates free radicals upon heating, is added to the extract of the sample and the standard and fluorescence emission readings are taken until a zero value is reached for the extract of the sample. To measure the protective effect of an antioxidant using the ORAC assay, the area under the fluorescence decay curve (AUC) of the sample is calculated and compared to that of the blank in which no antioxidant is present.
After the fluorescent readings are taken, the ORAC values are calculated by using a regression equation between standard concentration 62, FIG. 7, and the net area under the B-PE decay curve of sample 60. ORAC values are typically expressed in μmole Trolox equivalent per liter or per gram.
(§1) In accordance with the subject invention the area under the curve (AUC) for the sample, standard, and blank are calculated as: AUC=0.5+f1/f0+f2/f0+f3/f0+f4/f0+ . . . +fi/f0 (1) Where f0=initial fluorescence reading at 0 minute, and fi is the fluorescence reading at time i. Typically, equation (1) is solved and the data analyzed in an electronic spreadsheet such as Microsoft Excel or other similar products or computer programs. The AUC is calculated for sample 60, standard 62 and blank 64. The net AUC is obtained by subtracting the AUC of blank 64 from sample 60. The relative ORAC value for sample 60, expressed in Trolox equivalents is calculated as: Relative ORAC value=[(AUCsample−AUCBlank)/(AUCTrolox−AUCBlank)]×(molarity of Trolox/molarity of sample) (2)

A short description of experiment [2]: ORAC assay with fluorescein probe (ORACFL), peroxyl radical scavenging assay. The settings on record: for Ratio (ORACFL/ORACB-PE): chemicals, Table 1; for ORACFL: fluorescein probe, calculated based on equation 2, n > 3. Type of experiment: biochemical. On the procedure:
as §1
Flavonoid compounds and β-phycoerythrin were purchased from Sigma (St. Louis, Mo.). Trolox, ascorbic acid and disodium fluorescein were obtained from Aldrich (Milwaukee, Wis.). 2,2′-azobis (2-amidino-propane) dihydrochloride (AAPH) was purchased from Wako Chemicals USA (Richmond, Va.). Various analyzed samples were also obtained. ORAC analyses were performed on a COBAS FARA II analyzer (Roche Diagnostic System Inc., Branchburg, N.J.; Excitation wavelength=493 nm and emission filter=515 nm).
Ascorbic acid and flavonoids were directly dissolved in acetone/water mixture (50:50, v/v) and diluted with pH 7.4 phosphate buffer for analysis. The solid samples were initially ground in a mechanical mill to produce a fine power; then 0.5 grams were accurately weighed and 20 mL of acetone/water (50:50, v/v) extraction solvent was added. The mixture was shaken at 400 RPM at room temperature on an orbital shaker for one hour. The extracts were centrifuged at 14000 rpm for 15 min, and the supernatant was ready for analysis after appropriate dilution with buffer solution. For liquid samples, a 20 mL aliquot of sample was centrifuged for 15 min and the supernatant was ready for analysis after appropriate dilution. Blood plasma or serum was diluted 100 to 200 fold with pH 7.4 phosphate buffer before analysis. To measure the ORAC in non-protein fraction, protein was removed using 0.5 N perchloric acid (1:1; v:v; plasma:acid), the samples were then centrifuged at 140,000×g for 10 min at 4° C., and the supernatants were removed as the serum nonprotein fractions and appropriately diluted with pH 7.4 phosphate buffer before the analysis.
Peroxyl radical scavenging assay. The COBAS FARA II was programmed to use a two-reagent system (Reaction Mode 3, P-I-SRI-A). The reaction mode pipetted and transferred the sample (20 μL), phosphate buffer (5 μL, 0.75 mM, pH 7.4), and main reagent (365 μL FL, 4.8×10^−8 M) into the main reagent wells of their respective cuvette rotor positions. With spinning of the rotor, the reagents are mixed and incubated for 30 s before recording the initial fluorescence (f0). After the rotor stops spinning, a start reagent (SRI), 8 μL of APPH (0.64M) plus 2 μL of the phosphate buffer is pipetted into the appropriate start reagent well in the curvette rotor. Next, the analyzer starts spinning, mixing of the sample/FL with AAPH reagent and the oxidative reaction starts. […] Between transfers, both sample and reagent transfer pipettes are washed with clean solution to eliminate sample cross contamination. Fluorescence readings are taken at 0.5 s and then every minute thereafter (f1, f2, f3 . . . ) for a duration of 30 min. If the fluorescence of the final reading has not declined by >95% from the first reading, the dilution of sample is adjusted accordingly and the sample is reanalyzed. To determine the maximum voltage for the photomultiplier tube, the AAPH reagent is omitted and is replaced with buffer, and the analysis is run for 10 min. FL and AAPH were prepared in a 0.75 mM phosphate buffer. FL working solution was routinely preincubated in a waterbath at 37° C. for 15 min before loading into the COBAS reagent rack.

Structures are written as SMILES.

The text below walks through data of patent US7132296B2, “Method for assaying the antioxidant capacity of a sample” (Medical Products Manufacturing, LLC, priority 2002, dated 2006).

`O=C(O)/C=C/c1ccc(O)c(O)c1` [Caffeic Acid]: the ORACB-PE in experiment [1] is reported as 1.40 ± 0.09 relative Trolox equivalent. In addition, in experiment [2], the “Ratio (ORACFL/ORACB-PE)” value amounted to 3.12 and the ORACFL was 4.37 ± 0.24 relative Trolox equivalent.

Turning to `O=c1c(-c2ccc(O)cc2)coc2cc(O)cc(O)c12` [Genistein], in experiment [1], the ORACB-PE was 2.3 ± 0.16 relative Trolox equivalent. In experiment [2], the “Ratio (ORACFL/ORACB-PE)” value came out at 2.57 and the ORACFL is recorded as 5.93 ± 0.45 relative Trolox equivalent.

For the compound `N[C@@H](CCC(=O)N[C@@H](CS)C(=O)NCC(=O)O)C(=O)O` [Glutathione], the ORACB-PE in experiment [1] is given as 0.32 ± 0.01 relative Trolox equivalent. For the same compound, in experiment [2], the “Ratio (ORACFL/ORACB-PE)” value amounted to 1.94 and the ORACFL is recorded as 0.62 ± 0.02 relative Trolox equivalent.

On to `O=c1c(O)c(-c2ccc(O)c(O)c2)oc2cc(O)cc(O)c12` [Quercetin], for which, in experiment [1], the ORACB-PE is on record as 2.07 ± 0.05 relative Trolox equivalent. In experiment [2], the “Ratio (ORACFL/ORACB-PE)” value was found to be 2.11 and the ORACFL is 4.38 ± 0.22 relative Trolox equivalent.

On to `C[C@@H]1O[C@@H](Oc2c(-c3ccc(O)c(O)c3)oc3cc(O)cc(O)c3c2=O)[C@H](O)[C@H](O)[C@H]1O` [Quercetrin], for which the ORACB-PE in experiment [1] is on record as 2.70 ± 0.18 relative Trolox equivalent. Further, in experiment [2], the “Ratio (ORACFL/ORACB-PE)” value came to 2.15 and the ORACFL was 5.87 ± 0.49 relative Trolox equivalent.

Regarding `O=C1O[C@H]([C@@H](O)CO)C(O)=C1O` [Vitamin C], the ORACB-PE in experiment [1] was 0.43 ± 0.03 relative Trolox equivalent. For the same compound, in experiment [2], the “Ratio (ORACFL/ORACB-PE)” value is listed as 2.21 and the ORACFL is listed as 0.95 ± 0.02 relative Trolox equivalent.
